Measurements reported in PubChem BioAssay AID248 (DTP/NCI, 2004).
Values joined by “and” are separate entries in the source; they are usually repeats but may differ in a detail not shown here. Identical values can stand only once. Inconclusive results and toxic doses are left out. No stated cut-off is given here; in the data, active means T/C of 150% or more; inactive means T/C below 125%.

Test system: L1210 leukemia ip in BDF1 mice, survival T/C
Assay: NCI In Vivo Anticancer Drug Screen. Data for tumor model L1210 Leukemia (intraperitoneal) in B6D2F1 (BDF1) mice
Settings: endpoint: mean survival time, higher = longer survival
How it was run: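 Mice bearing the transplanted tumor received compound or vehicle. Survival of the treated group was divided by that of the vehicle-treated control group to give the ratio.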

[1] = dose: 100.0 mg/kg/injection, schedule: Q01DX001 (ip), vehicle: saline with Tween-80
[2] = dose: 100.0 mg/kg/injection, schedule: Q01DX009 (ip), vehicle: saline with Tween-80
[3] = dose: 100.0 mg/kg/injection, schedule: Q04DX002 (ip), vehicle: saline with Tween-80
[4] = dose: 100.0 mg/kg/injection, schedule: Q04DX003 (ip), vehicle: saline with Tween-80
[5] = dose: 200.0 mg/kg/injection, schedule: Q01DX001 (ip), vehicle: saline with Tween-80
[6] = dose: 200.0 mg/kg/injection, schedule: Q01DX009 (ip), vehicle: saline with Tween-80
[7] = dose: 200.0 mg/kg/injection, schedule: Q04DX002 (ip), vehicle: saline with Tween-80
[8] = dose: 200.0 mg/kg/injection, schedule: Q04DX003 (ip), vehicle: saline with Tween-80
[9] = dose: 400.0 mg/kg/injection, schedule: Q01DX001 (ip), vehicle: saline with Tween-80
[10] = dose: 400.0 mg/kg/injection, schedule: Q04DX002 (ip), vehicle: saline with Tween-80
[11] = dose: 400.0 mg/kg/injection, schedule: Q04DX003 (ip), vehicle: saline with Tween-80
[12] = dose: 100.0 mg/kg/injection, schedule: Q01DX009 (ip), vehicle: saline
[13] = dose: 200.0 mg/kg/injection, schedule: Q01DX009 (ip), vehicle: saline
[14] = dose: 400.0 mg/kg/injection, schedule: Q01DX009 (ip), vehicle: saline
[15] = dose: 100.0 mg/kg/injection, schedule: Q01DX001 (ip), vehicle: carboxymethylcellulose (CMC)
[16] = dose: 200.0 mg/kg/injection, schedule: Q01DX001 (ip), vehicle: carboxymethylcellulose (CMC)
[17] = dose: 400.0 mg/kg/injection, schedule: Q01DX001 (ip), vehicle: carboxymethylcellulose (CMC)

Measured: T/C

OC1(CCC2OCCO2)c2ccccc2-c2ccccc21
inactive: [1] 95 % of control | [2] 93 % of control | [3] 95 % of control and 100 % of control | [4] 96 % of control | [5] 90 % of control | [6] 96 % of control and 100 % of control | [7] 93 % of control and 102 % of control | [8] 96 % of control | [9] 93 % of control | dose: 400.0 mg/kg/injection, schedule: Q01DX009 (ip), vehicle: saline with Tween-80 96 % of control and 120 % of control | [10] 95 % of control | [11] 95 % of control

COc1ccc(/C=N/NC(=O)c2ccccc2OC)cc1
inactive: [12] 108 % of control | dose: 100.0 mg/kg/injection, schedule: Q04DX003 (ip), vehicle: saline 108 % of control | dose: 130.0 mg/kg/injection, schedule: Q01DX009 (ip), vehicle: saline 104 % of control | [13] 92 % of control | dose: 200.0 mg/kg/injection, schedule: Q04DX003 (ip), vehicle: saline 102 % of control | dose: 300.0 mg/kg/injection, schedule: Q01DX009 (ip), vehicle: saline 92 % of control | [14] 114 % of control | dose: 400.0 mg/kg/injection, schedule: Q04DX003 (ip), vehicle: saline 102 % of control

COc1cccc2c1CCC1=C2CC=C2CC3(CCC21C)OCCO3 (stereo not given)
inactive: dose: 100.0 mg/kg/injection, schedule: Q01DX009 (sc), vehicle: steriod suspending solution 91 % of control | dose: 200.0 mg/kg/injection, schedule: Q01DX009 (sc), vehicle: steriod suspending solution 101 % of control | dose: 400.0 mg/kg/injection, schedule: Q01DX009 (sc), vehicle: steriod suspending solution 106 % of control

Cc1ccc(C)c(NC(=S)NC(=O)c2ccc(Cl)cc2Cl)c1
inactive: [1] 104 % of control | [3] 95 % of control and 100 % of control | [4] 102 % of control | [5] 104 % of control | [7] 96 % of control and 110 % of control | [8] 105 % of control | [9] 100 % of control | [10] 96 % of control and 102 % of control | [11] 100 % of control

Cc1ccc(N2CCN(c3ccc([N+](=O)[O-])cc3)CC2)cc1Cl
inactive: [4] 100 % of control | [8] 100 % of control | [11] 98 % of control

CCN(CC)CCN1C(=O)C(C)C=C(C)C=C1C (stereo not given)
inactive: dose: 9.0 mg/kg/injection, schedule: Q04DX003 (ip), vehicle: other 97 % of control | dose: 18.0 mg/kg/injection, schedule: Q04DX003 (ip), vehicle: other 92 % of control | dose: 19.0 mg/kg/injection, schedule: Q01DX009 (ip), vehicle: other 105 % of control | dose: 38.0 mg/kg/injection, schedule: Q01DX009 (ip), vehicle: other 105 % of control | dose: 75.0 mg/kg/injection, schedule: Q01DX001 (ip), vehicle: other 100 % of control | dose: 75.0 mg/kg/injection, schedule: Q01DX009 (ip), vehicle: other 105 % of control | dose: 75.0 mg/kg/injection, schedule: Q04DX003 (ip), vehicle: other 91 % of control

OCC1(O)OCC(O)C(O)C1O (stereo not given)
inactive: [12] 89 % of control | [13] 94 % of control | [14] 90 % of control | dose: 800.0 mg/kg/injection, schedule: Q01DX009 (ip), vehicle: saline 90 % of control

O=[N+]([O-])c1cc2c3ccccc3oc2c2cccnc12
inactive: dose: 100.0 mg/kg/injection, schedule: Q01DX009 (ip), vehicle: Klucel (hydroxypropylcellulose) (HPC) 91 % of control | dose: 100.0 mg/kg/injection, schedule: Q04DX003 (ip), vehicle: Klucel (hydroxypropylcellulose) (HPC) 90 % of control | dose: 200.0 mg/kg/injection, schedule: Q01DX009 (ip), vehicle: Klucel (hydroxypropylcellulose) (HPC) 90 % of control | dose: 200.0 mg/kg/injection, schedule: Q04DX003 (ip), vehicle: Klucel (hydroxypropylcellulose) (HPC) 90 % of control | dose: 400.0 mg/kg/injection, schedule: Q04DX003 (ip), vehicle: Klucel (hydroxypropylcellulose) (HPC) 89 % of control

CC1(CCCOc2ccc(N)cc2)N=C(N)N=C(N)N1c1ccccc1 (stereo not given)
inactive: dose: 5.0 mg/kg/injection, schedule: Q01DX001 (ip), vehicle: saline 96 % of control | dose: 10.0 mg/kg/injection, schedule: Q01DX001 (ip), vehicle: saline 96 % of control | dose: 20.0 mg/kg/injection, schedule: Q01DX001 (ip), vehicle: saline 92 % of control | dose: 40.0 mg/kg/injection, schedule: Q01DX001 (ip), vehicle: saline 92 % of control | dose: 80.0 mg/kg/injection, schedule: Q01DX001 (ip), vehicle: saline 90 % of control

Cc1ccc(NC(=O)Nc2c(C)cccc2C)cc1
inactive: [15] 95 % of control | [16] 95 % of control | [17] 103 % of control

C=C(Cl)CN1C(=O)c2ccccc2C1=O
inactive: dose: 100.0 mg/kg/injection, schedule: Q04DX002 (ip), vehicle: Klucel (hydroxypropylcellulose) (HPC) 93 % of control | dose: 200.0 mg/kg/injection, schedule: Q04DX002 (ip), vehicle: Klucel (hydroxypropylcellulose) (HPC) 93 % of control | dose: 400.0 mg/kg/injection, schedule: Q04DX002 (ip), vehicle: Klucel (hydroxypropylcellulose) (HPC) 101 % of control

OC(COc1cccc2ccccc12)CN1CCN(c2ccc(Cl)cc2)CC1 (stereo not given)
inactive: dose: 100.0 mg/kg/injection, schedule: Q01DX001 (ip), vehicle: saline 98 % of control | dose: 200.0 mg/kg/injection, schedule: Q01DX001 (ip), vehicle: saline 101 % of control | dose: 400.0 mg/kg/injection, schedule: Q01DX001 (ip), vehicle: saline 97 % of control

NS(=O)(=O)c1ccc(NC(=O)Nc2ccc(F)cc2)cc1
inactive: [15] 99 % of control | dose: 100.0 mg/kg/injection, schedule: Q01DX009 (ip), vehicle: carboxymethylcellulose (CMC) 94 % of control and 101 % of control | dose: 100.0 mg/kg/injection, schedule: Q04DX002 (ip), vehicle: carboxymethylcellulose (CMC) 92 % of control and 100 % of control | dose: 100.0 mg/kg/injection, schedule: Q04DX003 (ip), vehicle: carboxymethylcellulose (CMC) 93 % of control | [16] 96 % of control | dose: 200.0 mg/kg/injection, schedule: Q01DX009 (ip), vehicle: carboxymethylcellulose (CMC) 94 % of control and 100 % of control | dose: 200.0 mg/kg/injection, schedule: Q04DX002 (ip), vehicle: carboxymethylcellulose (CMC) 100 % of control and 89 % of control | dose: 200.0 mg/kg/injection, schedule: Q04DX003 (ip), vehicle: carboxymethylcellulose (CMC) 104 % of control | [17] 99 % of control | dose: 400.0 mg/kg/injection, schedule: Q01DX009 (ip), vehicle: carboxymethylcellulose (CMC) 94 % of control and 101 % of control | dose: 400.0 mg/kg/injection, schedule: Q04DX002 (ip), vehicle: carboxymethylcellulose (CMC) 100 % of control and 102 % of control | dose: 400.0 mg/kg/injection, schedule: Q04DX003 (ip), vehicle: carboxymethylcellulose (CMC) 104 % of control

O=C(O)CSc1ccc(Cl)cc1
inactive: dose: 50.0 mg/kg/injection, schedule: Q01DX009 (ip), vehicle: saline with Tween-80 100 % of control | [2] 93 % of control | [6] 94 % of control
